Experimental findings from publication PMC10788915, “Fragment Merging, Growing, and Linking Identify New Trypanothione Reductase Inhibitors for Leishmaniasis” (Journal of Medicinal Chemistry, 2024) are described below.

Like-named read-outs stand apart in the source and are kept apart here.

Series [1] concerns L. infantum axenic amastigotes. Description: In vitro inhibition of axenic amastigote growth (MTT). The settings on record: 72 h, read-out: axenic amastigote EC50 ± SE (95% CI). It counts as cell-based, Leishmania infantum. As to the method: Axenic amastigote growth inhibition was evaluated using L. infantum strain (MHOM/TN/80/IPT1, WHO international reference strain). Axenic amastigote cultures were obtained as described previously with modifications.[45] Promastigotes were grown in Schneider’s Drosophila medium (SIGMA) containing 10% heat-inactivated fetal calf serum (FCS)(GIBCO-BRL) and 2% gentamicin (50 mg/L)(Sigma) in 25 cm^2 flasks at 22 °C. After 4–5 days, the parasites were adjusted to 1 × 10^6 parasites/mL in axenic medium MAA/20 consisting of modified medium 199 (Gibco BRL) with Hanks’ salts supplemented with 0.5% tryptic soy broth (Sigma), 0.01 mM bathocuproine disulfonic acid, 3 mM L-cysteine, 15 mM D-glucose, 5 mM L-glutamine, 4 mM NaHCO3, 0.023 mM bovine hemin, and 25 mM HEPES to a final pH of 6.5 and supplemented with 20% pretested FCS, and axenic amastigotes were obtained by shifting the incubation conditions: 198 μL of suspension was seeded in triplicate in 96-well flat bottom microplates and incubated at 37 °C, 5% CO2 for 48 h in order to allow the axenization. The amastigote cells were visualized under the light microscope to confirm transformation. Then, 2 μL of the selected compounds with varying concentrations were added: 100, 50, 25, 12.5, 6.25, 3.12, 1.56, 0.8, 0.4, 0.2, 0.1, 0.05 μM. […] Each experiment was conducted in triplicate for each drug concentration, and three independent experiments were performed. To estimate the 50% inhibitory concentration (IC50), the (3-[4.5-dimethylthiazol-2-yl]-2.5-diphenyltetrazolium bromide) (MTT) micromethod was used throughout the experiments with modification. After 72 h of incubation, 30 μL of MTT was added to each well, and the plates were further incubated for 3 h. The absorbance at 550 nm was measured with a 96-well scanner. Antileishmanial activity was expressed as the percentage of inhibition in the number of live parasites compared to that in the control (nontreated parasites). % inhibition was calculated as follows: % growth inhibition = [(absorb cell with drug × 100)/absorb cell control] – 100. Results were analyzed by GraphPad Prism 5.0, dose–response curves were obtained and IC50 deduced (GraphPad Software Inc., San Diego, USA).

For series [2], the system named is primary murine macrophages. Description: Cytotoxicity assay on primary murine macrophages (MTT). The conditions noted are these: Balb/c peritoneal macrophages, 72 h, read-out: primary murine macrophage CC50 ± SE (95% CI). It counts as cell-based, Balb/c mice. As to the method: (§1) To assess the cytotoxicity of compounds on mammalian macrophages, we tested all the compounds against both human leukemia monocyte cell line (THP-1 cells, ATCC) differentiated into macrophages by treatment with 40 ng/mL of phorbol myristate acetate (PMA; Sigma) for 48 h and peritoneal exudate macrophages harvested from Balb/c mice. […] Cell viability was evaluated using the MTT assay, and the concentration of the compound that produced a 50% reduction of cell viability in treated culture cells with respect to untreated ones (CC50) was determined by GraphPad Prism 5.0 (GraphPad Software Inc., San Diego, USA). […] The selectivity index for each compound was calculated as the ratio of cytotoxicity (CC50) in macrophages cells to activity (IC50) against Leishmania axenic amastigotes. The experiments were performed in triplicate, and two independent experiments were conducted.

Series [3] deals with human THP-1-derived macrophages. The series can be described thus: Cytotoxicity assay on human THP-1-derived macrophages (MTT). The conditions noted are these: for CC50: 72 h, MTT, read-out: human THP-1-derived macrophage CC50 ± SE (95% CI). It counts as cell-based. As to the method: as §1
The target of series [4] is T1, Leishmania infantum TR (LiTR) (Leishmania infantum, UniProt A4HSF7).
T1 construct: The TbTR and LiTR genes were subcloned in a pET28b vector; 6-His (cleaved yes); made in house; host or cells: E. coli BL21(DE3), pET28b
The series can be described thus: LiTR enzymatic inhibition assay (NADPH oxidation at 340 nm). It counts as biochemical. The settings on record: for LiTR residual activity % / remaining activity at 10 µM: compound at 10 μM. As to the method: (§2) Enzymatic inhibition assays were performed in 50 mM HEPES pH 7.4, 40 mM NaCl at 25 °C using a JASCO V650 spectrophotometer equipped with a JASCO EHC 716 Peltier element to ensure controlled temperature. The first experiment was carried out using 50 nM LiTR, 10 or 100 μM compound to be tested, 150 μM trypanothione (trypanothione disulfide purchased from Bachem), and 100 μM NADPH (tetrasodium salt, purchased from Calbiochem). The best inhibitor candidates were then tested at concentrations ranging from 1 nM to 250 μM to determine the IC50. Assays were initiated upon addition of 100 μM NADPH to 50 nM LiTR or hGR (human glutathione reductase purchased from Sigma-Aldrich) in the presence of different concentration of compounds and 150 μM trypanothione. For both experiments, the oxidation of NADPH was followed as a decrease in absorbance at 340 nm. For each concentration of compound, the initial velocity of the NADPH oxidation was used to determine the percentage of LiTR activity with respect to that in the absence of any compound. The IC50 was determined upon fitting the residual activity of TR as a dose–response logistic equation defined as ymin + (ymax – ymin)/(1 + (x/IC50)^slope). […] The Ki was determined graphically upon linear fitting of data points for each trypanothione concentration. Data analysis was performed with QtiPlot 0.9.8.9 svn 2288, and graphs were made with Matplotlib.
(§3) Figure S3. Inhibition assay of LiTR (red) and hGR (grey) with compounds 5-6, 9-10 and 14.
(§4) Enzymatic assays were carried out at 25°C on a JASCO V650 spectrophotometer equipped with a JASCO EHC716 Peltier unit. Compound concentrations used during the experiments range from 1 […]
(§5) higher than 30 µM and 20 µM, respectively. Briefly, 50 nM LiTR or hGR (Sigma Aldrich) were mixed in 50 mM HEPES pH 7.4, 40 mM NaCl with each compound and 150 µM trypanothione or glutathione. After 3-minute incubation at 25°C, the measurement was initiated upon addition of 100 µM NADPH. The oxidation of NADPH was followed as a decrease in absorbance at 340 nm. Each initial velocity of LiTR enzymatic reaction with the compounds was expressed as a percentage of residual activity with respect to that in the absence of compound. Each data point is the mean of two measurements. The IC50 was determined upon fitting the data as a dose response logistic equation defined by the Kaleidagraph software as ymin+(ymax-ymin)/(1+(x/IC50)^slope).
(§6) (1 picture or pasted object on this page, not shown here)

The nature of series [5]: Cytotoxicity assay on primary murine macrophages (MTT). It counts as cell-based, Balb/c mice. The conditions noted are these: Balb/c, mouse, primary peritoneal exudate macrophages, read-out: primary murine macrophage CC50 ± SE (95% CI). As to the method:
as §1

A short description of series [6]: Cytotoxicity assay on human THP-1-derived macrophages (MTT). It counts as cell-based. The conditions noted are these: human, THP-1 cells differentiated into macrophages with PMA, 72 h, MTT; read-out: human THP-1-derived macrophage CC50 ± SE (95% CI). As to the method: as §1
Series [7] deals with T2, hGR (human glutathione reductase) (Homo sapiens, UniProt P00390).
T2 construct: purchased Sigma-Aldrich
T2 sequence (P00390 44-522): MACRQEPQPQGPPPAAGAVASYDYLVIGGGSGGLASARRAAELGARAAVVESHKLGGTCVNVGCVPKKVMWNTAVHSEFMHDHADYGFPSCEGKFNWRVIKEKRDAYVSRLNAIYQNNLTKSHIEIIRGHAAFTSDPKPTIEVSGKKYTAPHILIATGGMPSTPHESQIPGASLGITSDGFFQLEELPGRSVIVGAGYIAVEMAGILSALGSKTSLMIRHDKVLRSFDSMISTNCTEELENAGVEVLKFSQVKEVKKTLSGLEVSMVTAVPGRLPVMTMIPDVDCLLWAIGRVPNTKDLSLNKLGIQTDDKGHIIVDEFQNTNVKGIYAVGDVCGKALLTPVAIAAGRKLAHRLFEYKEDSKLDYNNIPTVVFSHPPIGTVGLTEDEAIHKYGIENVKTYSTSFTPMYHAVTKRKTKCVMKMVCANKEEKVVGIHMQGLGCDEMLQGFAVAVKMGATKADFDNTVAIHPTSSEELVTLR
Description: hGR enzymatic inhibition assay (NADPH oxidation at 340 nm). It counts as biochemical. The conditions noted are these: 50 nM hGR, 100 μM NADPH, 25 °C. As to the method:
as §2, §3, §4, §5, §6

Series [8] in a line: Solubility observed in the enzymatic assay. It counts as physicochemical. The conditions noted are these: no reliable data at concentrations higher than 30 µM (5) and 20 µM (6). As to the method:
as §3, §4, §5, §6

Where [9] appears, read: mean ± SD, n = 3, read-out: LiTR residual activity %.

T1 sequence (A4HSF7 1-491): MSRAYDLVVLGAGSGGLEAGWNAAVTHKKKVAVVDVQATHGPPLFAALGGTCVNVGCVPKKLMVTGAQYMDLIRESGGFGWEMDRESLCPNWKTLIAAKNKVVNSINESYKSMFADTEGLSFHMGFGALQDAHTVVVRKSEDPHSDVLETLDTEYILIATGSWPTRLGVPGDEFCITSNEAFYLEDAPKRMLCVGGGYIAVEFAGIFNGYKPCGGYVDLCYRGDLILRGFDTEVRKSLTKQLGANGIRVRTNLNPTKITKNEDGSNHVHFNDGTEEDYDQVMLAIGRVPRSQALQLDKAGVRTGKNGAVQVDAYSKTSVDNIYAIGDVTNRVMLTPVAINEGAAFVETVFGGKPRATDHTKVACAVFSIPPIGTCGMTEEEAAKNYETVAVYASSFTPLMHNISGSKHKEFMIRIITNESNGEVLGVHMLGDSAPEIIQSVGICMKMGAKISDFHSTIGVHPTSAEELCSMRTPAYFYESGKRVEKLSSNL

For the compound “4-(3,4-Dichlorobenzyl)-N-(4-fluorophenyl)-N-((5-(phenethylcarbamoyl)furan-2-yl)methyl)piperazine-1-carboxamide [Compound 8]”, the EC50 in series [1] is 10.3 ± 0.9 µM. Besides, the CC50 in series [2] was 14.4 ± 1.6 µM. Moreover, in series [3], the “SI = human THP-1-derived macrophage CC50/axenic amastigote EC50” value is given as 1.1 and the CC50 came to 11.7 ± 1.6 µM. For the same compound, the “LiTR residual activity %” value in series [4] (mean ± SD, n = 3) is listed as 94.1 ± 4.9 @10 μM %.

For `O=C(Nc1ccc(F)cc1)N1CCN(CCCc2ccccc2)CC1` [Compound 4, N-(4-Fluorophenyl)-4-(3-phenylpropyl)piperazine-1-carboxamide], in series [1] (Leishmania infantum), the concentration giving a half-maximal response (EC50) is 11.5 ± 2.1 µM. Further, the CC50 at 72 h worked out at 12.9 ± 0.9 µM in series [5] and 9.6 ± 0.71 µM in series [6]. Moreover, in series [3], the “SI = human THP-1-derived macrophage CC50/axenic amastigote EC50” value is 0.8. Moreover, the remaining activity at 100 µM in series [4] (compound at 100 μM, mean ± SD, n = 3, read-out: LiTR residual activity %) amounted to 96.7 ± 6.1%.

`O=C(NCCc1ccc(F)cc1)c1ccc(CN(C(=O)N2CCN(CCCN3c4ccccc4Sc4ccc(Cl)cc43)CC2)c2ccc(F)cc2)o1` [Compound 6, 4-(3-(2-Chloro-10H-phenothiazin-10-yl)propyl)-N-((5-((4-fluorophenethyl)carbamoyl)furan-2-yl)methyl)-N-(4-fluorophenyl)piperazine-1-carboxamide]: the EC50 in series [1] turned out to be 13 ± 1.5 µM; in series [1] (Leishmania infantum) it was 12 ± 1.7 µM. The IC50 in series [7] turned out to be 9.6 ± 1.4 µM; in series [4] (50 nM LiTR, 150 μM trypanothione, 100 μM NADPH, 25 °C), 21.7 ± 4.4 µM. Moreover, the “solubility in the enzymatic assay” value in series [8] is recorded as “low solubility”. For the same compound, the “gain in LiTR IC50 with respect to 5” value in series [4] (compared to compound 5 (IC50 54.6 μM)) is recorded as “more than 2 fold”. Besides, the remaining activity at 10 µM in series [4] (setting [9]) amounted to 46.9 ± 18%.

As for `O=C(O)c1ccc(N(Cc2ccc(C(=O)NCCc3ccc(F)cc3)o2)C(=O)N2CCN(CCCc3ccccc3)CC2)cc1` [Compound 11, 4-(N-((5-((4-Fluorophenethyl)carbamoyl)furan-2-yl)methyl)-4-(3-phenylpropyl)piperazine-1-carboxamido)benzoic Acid], in series [1] (Leishmania infantum), the EC50 was 25.6 ± 7.4 µM. Also, the CC50 at 72 h in series [5] and in series [6] was more than 50 µM in each case. Further, in series [3], the “SI = human THP-1-derived macrophage CC50/axenic amastigote EC50” value is given as more than 2. In series [4] (setting [9]), the remaining activity at 10 µM is 74.5 ± 9.3%.

`O=C(NCCc1ccc(F)cc1)c1ccc(CNC(=O)N2CCN(CCCc3ccccc3)CC2)o1` [Compound 12, N-((5-((4-Fluorophenethyl)carbamoyl)furan-2-yl)methyl)-4-(3-phenylpropyl)piperazine-1-carboxamide]: the EC50 in series [1] (Leishmania infantum) was determined as 14.1 ± 1.3 µM. The CC50 at 72 h came out at 26.7 ± 4.5 µM in series [5] and 37.6 ± 13.8 µM in series [6]. For the same compound, the “SI = human THP-1-derived macrophage CC50/axenic amastigote EC50” value in series [3] was determined as 2.7. Moreover, the remaining activity at 10 µM in series [4] (setting [9]) is 74.6 ± 9.3%.

As for `O=C(NCCc1ccc(F)cc1)c1ccc(CNC(=O)N2CCN(Cc3ccc(Cl)c(Cl)c3)CC2)o1` [Compound 13, 4-(3,4-Dichlorobenzyl)-N-((5-((4-fluorophenethyl)carbamoyl)furan-2-yl)methyl)piperazine-1-carboxamide], the EC50 in series [1] (Leishmania infantum) was found to be 11.2 ± 0.7 µM. Further, the CC50 at 72 h in series [5] amounted to 12.6 ± 0.9 µM; in series [6] it was 21 ± 3.1 µM. Also, in series [3], the “SI = human THP-1-derived macrophage CC50/axenic amastigote EC50” value was 1.9. Also, the remaining activity at 10 µM in series [4] (setting [9]) was 89.2 ± 4.9%.

As for “N-((5-((4-Fluorophenethyl)carbamoyl)furan-2-yl)methyl)-N-(4-fluorophenyl)-4-(3-(2-(trifluoromethyl)-10H-phenothiazin-10-yl)propyl)piperazine-1-carboxamide [Compound 7]”, the EC50 in series [1] is 13 ± 1.5 µM. In series [3], the “SI = human THP-1-derived macrophage CC50/axenic amastigote EC50” value worked out at 1.8 and the CC50 was 23.4 ± 4.6 µM. Further, the “LiTR residual activity %” value in series [4] (mean ± SD, n = 3) was 70.8 ± 5.9 @10 μM %.

Broadly, the EC50 is the concentration giving half of the maximal effect. As usually defined, the CC50 is the concentration that lowers cell viability or growth by half. By IC50 is commonly meant the concentration needed to halve the response being measured. Lower therefore signals greater potency.
